Source: EP0416604A2, “PAF-antagonists for the preparation of a medicament, useful for the treatment of heart diseases, caused by diminished beta-receptor-stimulation” (Dr. Karl Thomae GmbH, priority 1989, dated 1991)

Assays:
Maus = details: p.o., acute toxicity; cited from earlier work
cardialen β-Rezeptoren = test: LV-dP/dtmax (cardiac contractility) response to isoprenaline in anaesthetised, despinalised rats before and after PAF infusion; format: in vivo, Ratten; design: Steigerung von LV-dP/dtmax durch Isoprenalin (Ansprechbarkeit der cardialen β-Rezeptoren): dose or concentration left out as unconfirmed; details: for Steigerung LV-dP/dtmax: despinalised rats, n=6, control before PAF
Protocol: Die neu aufgefundene Wirkung der PAF-Antagonisten wurde beispielsweise an B = 4-(2-Chlorphenyl)-9-methyl-2-[3-(4-morpholinyl)-3-propanon-1-yl]-6H-thieno[3.2-f][1.2.4]triazolo[4.3-a][1.4]-diazepin wie folgt geprüft: Männliche Ratten (Chbb:THOM, ca. 300 g) werden mit Hexobarbital-Natrium (150 mg/kg i.p.) narkotisiert. Die Trachea wird kannuliert und danach werden die Tiere despinalisiert. Die Tiere werden künstlich beatmet und mittels einem Heizkissen auf 37°C gehalten. Zur Messung des linksventrikulärem Drucks wird über die Arteria Carotis in den linken Ventrikel ein Millar Tipmanometer geschoben. Dieses Signal wird elektronisch differentiert und ist als LV-dP/dtmax ein Maß für die Kontraktionskraft des Herzes. Über einen Katheter in der anderen Arteria Carotis wird der arterielle Blutdruck gemessen. Die zu untersuchenden Substanzen werden intravenös über eine Kanüle in der Vena jugularis injiziert.
Isoprenalin (3-100 ng/kg) steigert dosisabhänig LV-dP/dtmax von 300 ± 90 bis 4450 ± 290 mm Hg/s (n=6). Nach einer 45-minütigen Infusion von PAF (50-100 ng/kg/min.) wurde wieder Isoprenalin (3 bis 100 ng/kg) injiziert. […] Dann wurde die Substanz B (10 mg/kg i.v.) verabreicht und nach 10 Minuten wurde wieder Isoprenalin injiziert.

CCCN(CCC)C(=O)C1Cc2sc3c(c2C1)C(c1ccccc1Cl)=NCc1nnc(C)n1-3 (stereo not drawn) [Substanz C]
LD₅₀ (Maus): 1700 mg/kg

CC(C)NCC(O)c1ccc(O)c(O)c1 (stereo not drawn) [Isoprenalin]
Steigerung LV-dP/dtmax (cardialen β-Rezeptoren; Isoprenalin 3 ng/kg i.v. (lower end of dose range 3-100 ng/kg)): 300 ± 90 mm Hg/s
Steigerung LV-dP/dtmax (cardialen β-Rezeptoren; Isoprenalin 100 ng/kg i.v. (upper end of dose range 3-100 ng/kg)): 4450 ± 290 mm Hg/s

CCCCCCCCCCCCCCCCOCC(COP(=O)([O-])OCC[N+](C)(C)C)OC(C)=O (stereo not drawn) [PAF]
Effekte von 3 und 10 ng/kg Isoprenalin (LV-dP/dtmax) (cardialen β-Rezeptoren; after 45 min infusion of PAF 50-100 ng/kg/min, rats): nicht beeinflußt
positiv inotrope Wirkung von dem Histamin-2 Agonist Dimaprit (cardialen β-Rezeptoren; effect of PAF on Dimaprit 1-10 mg/kg): absolut nicht beeinflußt
positiv inotrope Wirkung von dem Adenylcyclase Aktivator Forskolin (cardialen β-Rezeptoren; effect of PAF on Forskolin 3-20 µg/kg): absolut nicht beeinflußt

Cc1nnc2n1-c1sc3c(c1C(c1ccccc1Cl)=NC2)CC(C(=O)N1CCOCC1)C3 (single isomer, unassigned; (-)) [Substanz A, (-)-6-(2-Chlorphenyl)-8,9-dihydro-1-methyl-8-[(4-morpholinyl)carbonyl]-4H,7H-cyclopenta[4.5]thieno[3,2-f][1.2.4]triazolo[4.3-a][1.4]diazepin]
LD₅₀ (Maus): 1960 mg/kg

Cc1nnc2n1-c1sc(CCC(=O)N3CCOCC3)cc1C(c1ccccc1Cl)=NC2 [Substanz B, 4-(2-Chlorphenyl)-9-methyl-2-[3-(4-morpholinyl)-3-propanon-1-yl]-6H-thieno[3.2-f][1.2.4]triazolo[4.3-a][1.4]diazepin]
Steigerung von LV-dP/dtmax durch Isoprenalin (Ansprechbarkeit der cardialen β-Rezeptoren) (cardialen β-Rezeptoren; isoprenaline injected again after 10 min, responsiveness fully restored, rats): nicht signifikant unterschiedlich von den Kontrollwerten
LD₅₀ (Maus): 4600 mg/kg
